The source of these data is US20250154198A1, “PEPTIDE INHIBITORS OF INTERLEUKIN-23 RECEPTOR” (Zealand Pharma A/S, priority 2021, published 2025).

Where two headings read alike, the source gives them in different places. Where a SMILES comes first, the peptide text is derived from it.

Test [1] addresses T1, human IL-23R (Homo sapiens, UniProt Q5VWK5).
T1 construct: UniProtKB—Q5VWK5, amino acids 22-629; secretion signal of the plasmid (Promega N1371); expressed in transfected cells
T1 sequence (Q5VWK5 22-629): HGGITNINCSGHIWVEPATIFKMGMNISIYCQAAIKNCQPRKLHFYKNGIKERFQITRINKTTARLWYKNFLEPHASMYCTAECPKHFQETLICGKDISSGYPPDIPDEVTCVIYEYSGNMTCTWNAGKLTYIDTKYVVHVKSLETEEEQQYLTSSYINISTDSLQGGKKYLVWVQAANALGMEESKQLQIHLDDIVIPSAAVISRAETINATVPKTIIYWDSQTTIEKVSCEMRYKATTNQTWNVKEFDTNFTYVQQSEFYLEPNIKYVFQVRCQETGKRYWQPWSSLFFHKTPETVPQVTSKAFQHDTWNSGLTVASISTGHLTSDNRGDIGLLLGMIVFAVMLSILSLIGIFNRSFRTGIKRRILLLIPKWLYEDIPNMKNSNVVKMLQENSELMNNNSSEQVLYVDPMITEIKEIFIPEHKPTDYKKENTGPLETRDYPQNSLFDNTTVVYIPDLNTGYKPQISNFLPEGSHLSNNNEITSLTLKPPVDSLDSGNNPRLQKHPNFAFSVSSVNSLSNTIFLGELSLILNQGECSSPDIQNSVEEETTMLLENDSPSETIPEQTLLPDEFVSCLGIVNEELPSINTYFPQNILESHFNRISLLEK
Put plainly: Binding assay (NanoBRET displacement of fluorophore-labelled reference compound) for estimating binding affinity to human IL-23R. The note with it: for IL-23R inhibitory activity (in words): with reference to Ki and IC50 data of the Examples.

In test [2] the target is IL-23 mediated phospho-STAT3 formation in DB cells (Homo sapiens, UniProt Q5VWK5). Put plainly: Functional inhibition of IL-23 mediated STAT3 signalling (phospho-STAT3 Tyr705 MSD) in DB cells. Format: cell-based. In a few lines:
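DB cells preincubated 15 min with compound at 37° C, then stimulated 90 min with hIL-23 at EC80. Lysate phospho-STAT3 measured by MSD, normalized to IL-23-alone and buffer wells; IC50 and maximal % inhibition from 4PL fit.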

[3] abbreviates: Table 3-1, read-out: Ki hIL-23R.
Setting [4] is: Table 3-1, DB cells, read-out: IC50 (pSTAT3).

One may read the Ki as the dissociation constant of the complex between target and ligand, obtained from inhibition or displacement. Usually IC50 stands for the concentration at which inhibition is half-maximal. As to `CC(C)C[C@@H]1NC(=O)[C@H](Cc2c[nH]c3ccccc23)NC(=O)[C@H](Cc2c[nH]c3ccccc23)NC(=O)[C@@H]2CSSC[C@H](NC(=O)[C@H](CO)NC(=O)[C@@H](NC(=O)[C@@H](N)CC(=O)O)CSSC[C@@H](C(=O)N[C@@H](CCCNC(=N)N)C(N)=O)NC1=O)C(=O)N[C@@H](Cc1c[nH]c3ccccc13)C(=O)N[C@@H](CCC(N)=O)C(=O)N2` [Ref 1, H-DC(1b)SC(2b)WQC(2b)WWLC(1b)R-[NH2], reference compound], in test [1], the inhibition constant (Ki) was more than 1000 nM and the “IL-23R inhibitory activity (in words)” value is “inactive”. Moreover, the IC50 in test [2] is more than 1000 nM. In addition, the IC50 in test [2] (read-out: IC50 (pSTAT3), Table 3-1, DB cells) is more than 1000 nM.

On to `CC(C)C[C@@H]1NC(=O)[C@H](Cc2c[nH]c3ccccc23)NC(=O)[C@H](Cc2c[nH]c3ccccc23)NC(=O)[C@H](CO)NC(=O)[C@H](CCC(N)=O)NC(=O)[C@H](Cc2c[nH]c3ccccc23)NC(=O)[C@H](CO)NC(=O)[C@H](CO)NC(=O)[C@@H](NC(=O)[C@@H](N)CC(=O)O)CCC(=O)NCCCC[C@@H](C(=O)N[C@@H](CCCNC(=N)N)C(N)=O)NC1=O` [Ref 2, reference compound] (HELM PEPTIDE1{D.E.S.S.W.Q.S.W.W.L.K.R.[am]}$PEPTIDE1,PEPTIDE1,2:R3-11:R3$$$V2.0), for which the Ki in test [1] (setting [3]) is more than 1000 nM. Moreover, the IC50 in test [2] (setting [4]) is more than 1000 nM.

Take `CC(C)C[C@@H]1NC(=O)[C@H](Cc2c[nH]c3ccccc23)NC(=O)[C@H](Cc2c[nH]c3ccccc23)NC(=O)[C@H](Cc2ccc(O)cc2)NC(=O)[C@H](CCC(N)=O)NC(=O)[C@H](Cc2c[nH]c3ccccc23)NC(=O)[C@H]([C@@H](C)O)NC(=O)[C@H](CO)NC(=O)[C@@H](NC(=O)[C@@H](N)CC(=O)O)CCC(=O)NCCCC[C@@H](C(=O)N[C@@H](CCCNC(=N)N)C(N)=O)NC1=O` [Ref 3, reference compound] (HELM PEPTIDE1{D.E.S.T.W.Q.Y.W.W.L.K.R.[am]}$PEPTIDE1,PEPTIDE1,2:R3-11:R3$$$V2.0): the Ki in test [1] (setting [3]) was more than 1000 nM. The half-maximal inhibitory concentration (IC50) in test [2] (setting [4]) was more than 1000 nM.

For `CSCC[C@@H]1NC(=O)[C@H](CO)NC(=O)[C@@H](NC(=O)[C@H](CC(=O)O)NC(C)=O)CCC(=O)NCCCC[C@@H](C(=O)N[C@@H](CCCNC(=N)N)C(N)=O)NC(=O)[C@H](CC(C)C)NC(=O)[C@H](Cc2c[nH]c3ccccc23)NC(=O)[C@H](Cc2c[nH]c3ccccc23)NC(=O)[C@H](CCSC)NC(=O)[C@H](CCC(N)=O)NC(=O)[C@H](Cc2c[nH]c3ccccc23)NC1=O` [Ref 4, reference compound] (HELM PEPTIDE1{[ac].D.E.S.M.W.Q.M.W.W.L.K.R.[am]}$PEPTIDE1,PEPTIDE1,3:R3-12:R3$$$V2.0), the Ki in test [1] (setting [3]) was more than 1000 nM. In addition, the IC50 in test [2] (setting [4]) was more than 1000 nM.

Turning to `CC(=O)N[C@@H](CC(=O)O)C(=O)N[C@H]1CCC(=O)NCCCC[C@@H](C(=O)N[C@@H](CCCNC(=N)N)C(N)=O)NC(=O)[C@H](Cc2c[nH]c3ccccc23)NC(=O)[C@H](Cc2c[nH]c3ccccc23)NC(=O)[C@@H]2CSCC(=O)CSC[C@H](NC(=O)[C@H](CO)NC1=O)C(=O)N[C@@H](Cc1c[nH]c3ccccc13)C(=O)N[C@@H](CCC(N)=O)C(=O)N2` [Ref 7, [Ac]-DE(1c)SC(2a)WQC(2a)WWK(1c)R-[NH2], reference compound] (HELM PEPTIDE1{[ac].D.E.S.C.W.Q.C.W.W.K.R.[am]}|CHEM1{[O=C(C[*:1])C[*:2]]}$PEPTIDE1,PEPTIDE1,3:R3-11:R3|PEPTIDE1,CHEM1,5:R3-1:R1|PEPTIDE1,CHEM1,8:R3-1:R2$$$V2.0), the Ki in test [1] (setting [3]) was more than 1000 nM. In addition, the “IL-23R inhibitory activity (in words)” value in test [1] was “inactive”. The IC50 in test [2] (setting [4]) was more than 1000 nM.
